Measurements from patent US12103952B2, “Methods for expressing proteins in axons” (Cornell University, priority 2010, dated 2024).

Test system: CREB
Test: CREB levels in severed axons by immunofluorescence
Format: cell-based, rat
Conditions: for NGF-dependent restoration of CREB immunofluorescence: 1 μM cycloheximide or 40 μM anisomycin, concurrent with NGF replacement
Description: FIGS. 7A-B are results showing the axonal translation and retrograde transport of endogenous CREB. (A) CREB levels in severed axons of E15 DRGs were assayed by immunofluorescence with a CREB-specific antibody. CREB was depleted on removal of NGF, with near complete loss of fluorescence signals by 3 hours. […] The error bars represent s.e.m. (n=40). (B) CREB is depleted from axon terminals in a microtubule-dependent manner. CREB levels in severed axons were monitored, as in A, after removal and restoration of NGF, in the presence of LLnL or colchicine. Colchicine, but not LLnL, blocked the reduction in CREB levels following removal of NGF. The error bars represent s.e.m. (n=40).
E15 rat or E13 mouse embryonic dorsal root ganglion (DRG) explants were plated on glass-bottom culture dishes (MatTek) or glass coverslips pre-coated with 33 μg/ml poly-D-lysine and 1 μg/ml laminin. CREB^α/Δ−/+ animals used to generate CREB^α/Δ−/− embryos were from Jackson Labs. E15 dissociated DRG neurons were prepared as described by Wu et al., Nature 436, 1020-1024 (2005). DRGs were cultured in B27/Neurobasal medium (Invitrogen) supplemented with 100 ng/ml nerve growth factor (NGF) and […] 5′-fluorodeoxyuridine (5-FdU) for 3 days. siRNA-mediated knockdown in DRG neurons has been described previously by Higuchi et al., Biochemical & Biophysical Research Communications 301, 804-809 (2003) and was performed using siRNAs listed in Table S3. For measurements of CREB levels in isolated axons, axons were severed from cell bodies by removing the explant with a flame-sharpened Pasteur pipette (Wu et al., Nature 436, 1020-1024 (2005)). Modified Boyden chambers were based on the procedure of Twiss (Zheng et al., Journal of Neuroscience 21, 9291-9303 (2001)) and modified to obtain distal axons as described by Wu et al., Nature 436, 1020-1024 (2005). mRNA from harvested axons (Wu et al., Nature 436, 1020-1024 (2005)) was used to prepare a cDNA library using a modified, unbiased single cell protocol as described below. See also Tietjen et al., Neuron 38, 161-175 (2003). Compartmented (Campenot) cultures were prepared as described below. See also Campenot, Proc Natl Acad Sci USA 74, 4516-4519 (1977)).
Images and measurements of signals in axons were taken from the terminal 50 μm of the axon, except where indicated. Analyzed axons were a minimum of 2000 μm for all experiments. DRGs were fixed with 4% PFA in CBS overnight at 4° C., permeabilized with 0.5% Triton X-100/TBS, and blocked in 4% BSA/TBS for 1 hour. DRGs were labeled with antibodies (Table S4) in 2% BSA/0.1% Triton X-100/TBS overnight at 4° C. For image acquisition details, see below.
The axonal localization of CREB was also examined by immunofluorescence. Axons were severed from cultured DRG explants to rule out potential contributions from anterograde transport of cell body-derived CREB. […] Although the majority of CREB protein localized to the nucleus, with substantially lower levels in axons (FIG. 4D), the immunofluorescence signal in axons was specific. Similar immunofluorescence staining was seen using a different CREB-specific antibody that recognized a non-overlapping epitope.
The importin proteins, which bind nuclear-localization sequences (NLS) (Goldfarb et al., Trends in Cell Biology 14, 505-514 (2004)), are present in axons and mediate the retrograde trafficking of axonally-injected fluorescently-labeled NLS peptides (Hanz et al., Neuron 40, 1095-1104 (2003)). Since CREB contains a NLS that mediates its nuclear localization (Waeber & Habener, Mol Endocrinol 5, 1418-1430 (1991)), axonal CREB may be retrogradely transported to the cell body. To determine if endogenously-expressed CREB is retrogradely trafficked, we examined the time course of CREB reduction in axons upon replacement of media with NGF-free media. […]

Compound | NGF-dependent restoration of CREB immunofluorescence | CREB immunoreactivity in severed axons (100 ng/ml NGF + 1 μM cycloheximide, 3 hours) | time for axonal CREB levels to decrease to baseline (after NGF removal) [h] | time for CREB levels to return to original levels (following restoration of NGF) [h] | recovery in CREB levels (within 30 min of NGF restoration) [%]
COc1ccc(C[C@H]2NC[C@H](O)[C@H]2OC(C)=O)cc1 [anisomycin] | prevented the restoration of CREB immunofluorescence | – | – | – | –
C[C@@H]1C[C@@H]([C@H](O)CC2CC(=O)NC(=O)C2)C(=O)[C@@H](C)C1 [cycloheximide] | prevented the restoration of CREB immunofluorescence | loss of CREB immunoreactivity | – | – | –
NGF: nerve growth factor | – | – | ≤ 3 | 2 | ~40
